Assay results taken from ChEMBL document CHEMBL6083222, “Discovery of novel, orally bioavailable phenylacetamide derivatives as multikinase inhibitors and in vivo efficacy study in hepatocellular carcinoma animal models” (Bioorg Med Chem Lett, 2024).

Legend:
[1] = target: T1, Receptor-type tyrosine-protein kinase FLT3 (Homo sapiens, UniProt P36888)
T1 sequence (P36888 whole entry): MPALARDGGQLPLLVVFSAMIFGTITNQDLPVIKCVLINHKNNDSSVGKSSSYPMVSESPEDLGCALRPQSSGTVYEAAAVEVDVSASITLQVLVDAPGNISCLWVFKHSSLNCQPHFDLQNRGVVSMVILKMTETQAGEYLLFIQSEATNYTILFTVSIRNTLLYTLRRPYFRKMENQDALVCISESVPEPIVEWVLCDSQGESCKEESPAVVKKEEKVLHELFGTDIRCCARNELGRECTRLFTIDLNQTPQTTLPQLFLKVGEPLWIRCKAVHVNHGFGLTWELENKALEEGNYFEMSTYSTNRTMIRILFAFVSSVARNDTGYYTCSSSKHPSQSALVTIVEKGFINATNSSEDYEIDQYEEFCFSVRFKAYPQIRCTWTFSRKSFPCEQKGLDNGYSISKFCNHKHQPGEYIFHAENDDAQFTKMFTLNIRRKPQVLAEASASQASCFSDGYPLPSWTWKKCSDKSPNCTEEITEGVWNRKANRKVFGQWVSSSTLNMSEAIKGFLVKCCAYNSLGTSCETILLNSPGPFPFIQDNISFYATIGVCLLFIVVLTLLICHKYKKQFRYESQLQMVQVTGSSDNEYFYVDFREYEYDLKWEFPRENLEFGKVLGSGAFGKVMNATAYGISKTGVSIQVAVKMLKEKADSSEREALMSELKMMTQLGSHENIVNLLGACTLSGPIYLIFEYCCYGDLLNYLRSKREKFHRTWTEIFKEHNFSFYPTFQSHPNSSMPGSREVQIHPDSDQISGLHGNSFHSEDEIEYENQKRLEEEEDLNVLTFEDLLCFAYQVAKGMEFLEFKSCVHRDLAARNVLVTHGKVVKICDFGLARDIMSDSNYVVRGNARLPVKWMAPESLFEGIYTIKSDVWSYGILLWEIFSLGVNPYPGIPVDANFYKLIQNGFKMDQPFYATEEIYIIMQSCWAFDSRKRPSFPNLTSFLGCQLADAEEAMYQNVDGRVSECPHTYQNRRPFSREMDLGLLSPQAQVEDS
Description: Inhibition of FLT3 (unknown origin)

[2] = target: Platelet-derived growth factor receptor alpha (Homo sapiens, UniProt P16234)
Chain of Platelet-derived growth factor receptor alpha (P16234 whole entry): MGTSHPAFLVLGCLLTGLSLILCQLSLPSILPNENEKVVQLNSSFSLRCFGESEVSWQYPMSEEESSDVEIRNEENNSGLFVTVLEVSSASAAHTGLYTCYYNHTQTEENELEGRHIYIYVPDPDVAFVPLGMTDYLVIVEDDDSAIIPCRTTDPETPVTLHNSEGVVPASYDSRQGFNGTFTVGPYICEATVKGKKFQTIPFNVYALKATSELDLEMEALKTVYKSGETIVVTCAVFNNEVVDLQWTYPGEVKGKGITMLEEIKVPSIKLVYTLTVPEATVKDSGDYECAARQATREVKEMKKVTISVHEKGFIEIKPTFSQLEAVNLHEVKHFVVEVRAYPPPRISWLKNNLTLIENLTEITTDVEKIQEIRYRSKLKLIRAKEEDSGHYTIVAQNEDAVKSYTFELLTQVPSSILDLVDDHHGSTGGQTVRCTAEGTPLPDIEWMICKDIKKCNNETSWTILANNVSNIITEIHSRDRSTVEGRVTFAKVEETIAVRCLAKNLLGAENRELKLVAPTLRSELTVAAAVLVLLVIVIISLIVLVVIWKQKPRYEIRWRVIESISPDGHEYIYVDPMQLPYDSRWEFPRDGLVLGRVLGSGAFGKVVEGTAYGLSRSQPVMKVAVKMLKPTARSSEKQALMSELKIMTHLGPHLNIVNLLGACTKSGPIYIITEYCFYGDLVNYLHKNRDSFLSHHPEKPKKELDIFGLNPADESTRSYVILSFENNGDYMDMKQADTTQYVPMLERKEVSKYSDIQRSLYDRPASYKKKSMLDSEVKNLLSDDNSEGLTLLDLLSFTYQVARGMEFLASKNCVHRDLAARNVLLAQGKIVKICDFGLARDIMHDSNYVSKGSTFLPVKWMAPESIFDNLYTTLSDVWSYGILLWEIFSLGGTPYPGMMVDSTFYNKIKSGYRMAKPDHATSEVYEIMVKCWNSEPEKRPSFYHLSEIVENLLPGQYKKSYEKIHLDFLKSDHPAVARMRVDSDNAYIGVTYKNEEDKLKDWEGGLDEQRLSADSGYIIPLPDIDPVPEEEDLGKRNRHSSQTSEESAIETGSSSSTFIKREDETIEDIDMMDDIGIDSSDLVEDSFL
Description: Inhibition of PDGFR-alpha (unknown origin)

[3] = target: Platelet-derived growth factor receptor beta (Homo sapiens, UniProt P09619)
Chain of Platelet-derived growth factor receptor beta (P09619 whole entry): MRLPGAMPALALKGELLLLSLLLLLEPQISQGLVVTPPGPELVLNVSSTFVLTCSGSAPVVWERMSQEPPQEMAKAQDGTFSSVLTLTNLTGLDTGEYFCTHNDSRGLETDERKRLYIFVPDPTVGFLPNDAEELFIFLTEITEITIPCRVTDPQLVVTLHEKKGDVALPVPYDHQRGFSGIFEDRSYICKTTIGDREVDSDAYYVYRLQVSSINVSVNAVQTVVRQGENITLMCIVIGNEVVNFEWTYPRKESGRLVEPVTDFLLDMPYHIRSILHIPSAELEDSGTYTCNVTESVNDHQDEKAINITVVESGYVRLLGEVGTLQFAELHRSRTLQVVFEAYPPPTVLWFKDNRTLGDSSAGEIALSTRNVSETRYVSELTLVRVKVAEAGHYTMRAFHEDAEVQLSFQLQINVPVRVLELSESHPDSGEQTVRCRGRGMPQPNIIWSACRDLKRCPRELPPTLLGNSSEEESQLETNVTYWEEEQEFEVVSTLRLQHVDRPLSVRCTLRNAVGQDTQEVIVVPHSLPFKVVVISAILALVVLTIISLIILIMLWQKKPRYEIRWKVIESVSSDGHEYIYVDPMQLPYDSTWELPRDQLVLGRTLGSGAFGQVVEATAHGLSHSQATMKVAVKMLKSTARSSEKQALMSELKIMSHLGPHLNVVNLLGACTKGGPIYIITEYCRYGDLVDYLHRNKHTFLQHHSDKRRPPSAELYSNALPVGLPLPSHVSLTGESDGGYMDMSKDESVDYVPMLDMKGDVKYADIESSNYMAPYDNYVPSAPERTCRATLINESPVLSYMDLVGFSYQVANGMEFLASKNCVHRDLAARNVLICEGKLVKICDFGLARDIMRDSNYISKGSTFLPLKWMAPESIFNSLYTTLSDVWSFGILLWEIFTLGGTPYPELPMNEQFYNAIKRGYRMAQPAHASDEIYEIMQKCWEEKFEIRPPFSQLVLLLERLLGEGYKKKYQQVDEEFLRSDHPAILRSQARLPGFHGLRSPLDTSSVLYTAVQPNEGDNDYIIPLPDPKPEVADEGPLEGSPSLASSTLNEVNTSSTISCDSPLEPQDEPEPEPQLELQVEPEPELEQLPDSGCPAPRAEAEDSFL
Description: Inhibition of PDGFR-beta (unknown origin)

[4] = target: Voltage-gated inwardly rectifying potassium channel KCNH2 (Homo sapiens, UniProt Q12809); test: Inhibition of hERG; type: toxicity
Chain of Voltage-gated inwardly rectifying potassium channel KCNH2 (Q12809 whole entry): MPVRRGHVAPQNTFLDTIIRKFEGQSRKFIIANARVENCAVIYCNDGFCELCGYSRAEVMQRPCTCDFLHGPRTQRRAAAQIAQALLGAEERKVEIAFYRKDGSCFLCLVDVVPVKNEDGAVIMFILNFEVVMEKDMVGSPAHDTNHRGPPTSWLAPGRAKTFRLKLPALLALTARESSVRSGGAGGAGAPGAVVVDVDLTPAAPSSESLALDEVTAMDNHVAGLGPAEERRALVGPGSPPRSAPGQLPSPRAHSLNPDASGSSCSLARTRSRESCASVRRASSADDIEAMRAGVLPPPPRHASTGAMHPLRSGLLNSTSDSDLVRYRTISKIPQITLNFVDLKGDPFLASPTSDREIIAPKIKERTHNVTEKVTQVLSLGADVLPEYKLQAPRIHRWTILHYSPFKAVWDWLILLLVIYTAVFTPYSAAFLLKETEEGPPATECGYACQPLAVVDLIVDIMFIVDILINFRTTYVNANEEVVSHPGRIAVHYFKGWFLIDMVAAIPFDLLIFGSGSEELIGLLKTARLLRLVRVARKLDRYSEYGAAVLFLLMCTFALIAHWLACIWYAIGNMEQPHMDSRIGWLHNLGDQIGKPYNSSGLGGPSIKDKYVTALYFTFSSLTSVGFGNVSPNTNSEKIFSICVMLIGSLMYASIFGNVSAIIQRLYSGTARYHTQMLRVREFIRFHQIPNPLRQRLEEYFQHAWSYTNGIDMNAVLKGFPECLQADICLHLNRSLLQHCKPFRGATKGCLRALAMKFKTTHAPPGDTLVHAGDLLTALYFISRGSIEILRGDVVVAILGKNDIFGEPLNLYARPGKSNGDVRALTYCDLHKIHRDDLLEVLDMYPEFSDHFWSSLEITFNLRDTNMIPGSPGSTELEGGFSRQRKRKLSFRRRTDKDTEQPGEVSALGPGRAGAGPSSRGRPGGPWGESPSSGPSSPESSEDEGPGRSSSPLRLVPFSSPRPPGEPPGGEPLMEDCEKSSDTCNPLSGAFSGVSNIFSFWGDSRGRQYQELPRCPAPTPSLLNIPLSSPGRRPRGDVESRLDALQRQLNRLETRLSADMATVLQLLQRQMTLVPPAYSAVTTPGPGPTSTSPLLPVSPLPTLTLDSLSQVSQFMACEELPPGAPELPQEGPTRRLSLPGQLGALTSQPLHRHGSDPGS

[5] = target: Vascular endothelial growth factor receptor 2 (Homo sapiens, UniProt P35968); test: Inhibition of KDR (unknown origin)
Chain of Vascular endothelial growth factor receptor 2 (P35968 whole entry): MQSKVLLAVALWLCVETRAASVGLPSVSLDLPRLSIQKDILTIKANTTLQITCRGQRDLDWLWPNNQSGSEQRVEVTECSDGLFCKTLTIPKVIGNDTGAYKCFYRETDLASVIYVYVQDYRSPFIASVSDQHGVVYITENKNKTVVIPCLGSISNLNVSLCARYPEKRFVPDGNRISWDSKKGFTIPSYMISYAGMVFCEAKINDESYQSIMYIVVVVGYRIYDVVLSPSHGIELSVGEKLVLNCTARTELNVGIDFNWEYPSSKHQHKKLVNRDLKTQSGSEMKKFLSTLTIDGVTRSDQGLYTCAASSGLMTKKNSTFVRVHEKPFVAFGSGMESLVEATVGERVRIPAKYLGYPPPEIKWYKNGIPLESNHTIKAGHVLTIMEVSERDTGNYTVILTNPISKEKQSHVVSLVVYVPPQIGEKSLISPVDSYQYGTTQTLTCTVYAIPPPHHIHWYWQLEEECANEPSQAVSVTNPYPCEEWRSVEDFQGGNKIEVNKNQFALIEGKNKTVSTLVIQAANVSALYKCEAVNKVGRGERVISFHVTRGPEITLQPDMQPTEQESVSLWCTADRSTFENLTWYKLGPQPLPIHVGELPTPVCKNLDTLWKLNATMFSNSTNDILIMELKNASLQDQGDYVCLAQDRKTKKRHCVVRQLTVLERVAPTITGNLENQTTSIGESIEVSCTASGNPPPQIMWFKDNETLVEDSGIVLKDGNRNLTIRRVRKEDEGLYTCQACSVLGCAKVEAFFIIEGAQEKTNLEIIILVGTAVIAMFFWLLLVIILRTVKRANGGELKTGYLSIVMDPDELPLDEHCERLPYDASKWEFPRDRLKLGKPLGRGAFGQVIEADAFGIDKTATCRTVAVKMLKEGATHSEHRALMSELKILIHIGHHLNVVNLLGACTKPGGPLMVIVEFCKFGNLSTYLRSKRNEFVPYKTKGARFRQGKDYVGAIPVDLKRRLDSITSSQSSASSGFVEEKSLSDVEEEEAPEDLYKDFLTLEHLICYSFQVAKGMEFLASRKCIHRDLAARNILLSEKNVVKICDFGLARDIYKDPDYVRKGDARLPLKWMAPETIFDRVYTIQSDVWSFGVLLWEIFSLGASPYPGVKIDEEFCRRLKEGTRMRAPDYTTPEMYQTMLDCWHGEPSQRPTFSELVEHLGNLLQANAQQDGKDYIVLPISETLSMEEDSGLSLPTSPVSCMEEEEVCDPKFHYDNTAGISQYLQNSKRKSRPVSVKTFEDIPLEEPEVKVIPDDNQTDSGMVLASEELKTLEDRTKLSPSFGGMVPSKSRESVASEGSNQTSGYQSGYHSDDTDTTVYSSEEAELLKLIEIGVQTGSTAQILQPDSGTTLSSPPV

Huh-7 = test: Anti-proliferative activity against human Huh-7 cells
HepG2 = test: Anti-proliferative activity against human HepG2 cells
Hep 3B2 [6] = test: Anti-proliferative activity against human Hep3B cells
HT-29 = test: Anti-proliferative activity against human HT-29 cells
HCT-116 = test: cells; details: Homo sapiens
Description: Anti-proliferative activity against human HCT-116 cells

[7] = Anti-proliferative activity against human KATO III cells
SNU-16 = test: Anti-proliferative activity against human SNU-16 cells; type: functional, cell-based
Hep 3B2 [8] = test: Antitumor activity against human Hep3B cells xenografted in BALB/c mouse at 60 mg/kg, po qd treated for 10 days followed by discontinuation of administration and re-continuation on day 18 measured after 7 days relative to control; details: read-out: TGI
[9] = Toxicity in BALB/c mouse xenografted with human Hep3B cells assessed as body weight loss at 60 mg/kg, po qd measured for 25 days; type: organism-based; details: in vivo, 600 h, time 25 day

## CC(C)(C)c1cc(NC(=O)Cc2ccc(-n3cnc4cc(-c5cccnc5)ccc43)cc2)on1
[1]
  IC50: 0.73 nM
[2]
  IC50: 0.28 nM
[3]
  IC50: 1.3 nM

## CC(C)(C)c1cc(NC(=O)Cc2ccc(-n3cnc4cc(C5CCNCC5)ccc43)cc2)on1
[1]
  IC50: 22 nM
[2]
  IC50: 11 nM
[3]
  IC50: 12 nM

## CC(C)(C)c1cc(NC(=O)Cc2ccc(-n3cnc4cc(-c5cn[nH]c5)ccc43)cc2)on1
[4]
  IC50: 26500 nM
[1]
  IC50: 0.33 nM
[2]
  IC50: 0.18 nM
[3]
  IC50: 0.89 nM

## CC(C)(C)OC(=O)Cn1cc(-c2ccc3c(c2)ncn3-c2ccc(CC(=O)Nc3cc(C(C)(C)C)no3)cc2)cn1
[5]
  IC50: 6.5 nM

## Cn1cc(-c2ccc3c(c2)ncn3-c2ccc(CC(=O)Nc3cc(C(C)(C)C)no3)cc2)cn1
[4]
  IC50: 17900 nM
[1]
  IC50: 0.59 nM
[2]
  IC50: 0.22 nM
[3]
  IC50: 1.15 nM

## COc1cc2nccc(Oc3ccc(NC(=O)C4(C(=O)Nc5ccc(F)cc5)CC4)cc3)c2cc1OC [CABOZANTINIB]
Huh-7
  IC50: 3660 nM
HepG2
  IC50: 3660 nM
Hep 3B2 [6]
  IC50: 6500 nM
HT-29
  IC50: 5840 nM
HCT-116
  IC50: 7260 nM

## CNC(=O)c1cc(Oc2ccc(NC(=O)Nc3ccc(Cl)c(C(F)(F)F)c3)cc2)ccn1 [SORAFENIB]
Hep 3B2 [6]
  IC50: 3330 nM
HT-29
  IC50: 5350 nM
[7]
  IC50: 569 nM
SNU-16
  IC50: 954 nM
Hep 3B2 [8]
  inhibition in vivo at 60 mg/kg: 34%
[9]
  Activity: ~ 16.32%
HCT-116
  IC50: 4430 nM
